US12410171B2, “Tropomyosin receptor kinase (TRK) degradation compounds and methods of use” (Cullgen (Shanghai), Inc., priority 2020, dated 2025)

Biological target: T1, TPM3-TRKA fusion protein (Homo sapiens, UniProt P04629)
T1 construct: The resulted chimeric proteins always retain the kinase domain of TRK proteins; TPM3 (fusion partner, N-terminal part of tropomyosin alpha-3, P06753); endogenous in cells; host or cells: KM12 colon cancer cells; the other entry of the earlier key: TPM3 (P06753, Tropomyosin alpha-3 chain)
Experiment: TPM3-TRKA fusion protein levels in KM12 cells (Western blot)
Format: cell-based
Details: for percent degradation of TPM3-TRKA protein at 0.01 µM: 16 h, TPM3-TRKA degradation in KM12 cells at 10 nM compound, category of percentage degradation, read-out: Degradation (at 10 nM)
Procedure, shortened: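 KM12 colon cancer cells were treated with DMSO or compounds at 0.1–100 nM, 0.4–30 nM or other stated concentrations for 4, 8–16 or 16 h. RIPA lysates were BCA-normalized and resolved by SDS-PAGE. TPM3-TRKA was detected by chemiluminescent Western blot, with bands quantified by densitometry.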

T1 sequence (P04629 with tags, fused parts or gaps): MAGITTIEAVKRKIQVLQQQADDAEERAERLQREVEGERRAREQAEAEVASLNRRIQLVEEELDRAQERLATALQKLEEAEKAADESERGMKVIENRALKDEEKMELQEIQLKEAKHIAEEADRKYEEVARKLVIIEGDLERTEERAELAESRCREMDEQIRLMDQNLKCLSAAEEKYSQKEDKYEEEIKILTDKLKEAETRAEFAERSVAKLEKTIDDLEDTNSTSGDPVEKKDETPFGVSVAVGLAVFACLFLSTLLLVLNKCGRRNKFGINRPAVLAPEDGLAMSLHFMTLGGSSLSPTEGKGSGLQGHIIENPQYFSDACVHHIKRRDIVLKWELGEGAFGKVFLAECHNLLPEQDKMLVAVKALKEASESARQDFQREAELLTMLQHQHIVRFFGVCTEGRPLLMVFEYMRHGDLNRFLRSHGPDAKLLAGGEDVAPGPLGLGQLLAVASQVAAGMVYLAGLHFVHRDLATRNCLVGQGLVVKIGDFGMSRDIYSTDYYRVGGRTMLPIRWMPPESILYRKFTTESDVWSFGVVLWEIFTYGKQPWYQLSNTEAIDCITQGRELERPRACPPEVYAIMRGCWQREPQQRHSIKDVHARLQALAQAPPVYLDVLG

percent degradation of TPM3-TRKA protein at 0.01 µM [%]	TPM3-TRKA protein levels (KM12 cells, 100 nM, indicated incubation time, Western blot (FIG. 2))	SMILES
< 50	–	Cc1ncsc1-c1ccc(CNC(=O)[C@@H]2C[C@@H](O)CN2C(=O)[C@@H](NC(=O)COCCOCCOCC(=O)N2CCN(c3ccc(C(=O)Nc4n[nH]c5ccc(Cc6cc(F)cc(F)c6)cc45)c(NC4CCOCC4)c3)CC2)C(C)(C)C)cc1 [CPD-058, (25,4R)-1-((S)-2-(tert-butyl)-14-(4-(4-((5-(3,5-Difluorobenzyl)-1H-indazol-3-yl)carbamoyl)-3-((tetrahydro-2H-pyran-4-yl)amino)phenyl)piperazin-1-yl)-4,14-dioxo-6,9,12-trioxa-3-azatetradecanoyl)-4-hydroxy-N-(4-(4-methylthiazol-5-yl)benzyl)pyrrolidine-2-carboxamide]
> 80	–	O=C(CN1CCN(c2cccc(-c3cnc4ccc(N5CCC[C@@H]5c5cccc(F)c5)nn34)n2)CC1)NCCOCCOCCOCCNc1cccc2c1C(=O)N(C1CCC(=O)NC1=O)C2=O (stereo partly drawn) [CPD-059, N-(2-(2-(2-(2-((2-(2,6-Dioxopiperidin-3-yl)-1,3-dioxoisoindolin-4-yl)amino)ethoxy)ethoxy)ethoxy)ethyl)-2-(4-(6-(6-((R)-2-(3-fluorophenyl)pyrrolidin-1-yl)imidazo[1,2-b]pyridazin-3-yl)pyridin-2-yl)piperazin-1-yl)acetamide]
> 80	rapidly reduced TPM3-TRKA protein levels	O=C(CN1CCN(c2cccc(-c3cnc4ccc(N5CCC[C@@H]5c5cccc(F)c5)nn34)n2)CC1)NCCNc1cccc2c1C(=O)N(C1CCC(=O)NC1=O)C2=O (stereo partly drawn) [CPD-060, N-(2-((2˜ (2,6-Dioxopiperidin-3-yl)-1,3-dioxoisoindolin-4-yl)amino)ethyl)-2-(4-(6-(6-((R)-2-(3-fluorophenyl)pyrrolidin-1-yl)imidazo[1,2-b]pyridazin-3-yl)pyridin-2-yl)piperazin-1-yl)acetamide]
< 50	–	Cc1ncsc1-c1ccc(CNC(=O)[C@@H]2C[C@@H](O)CN2C(=O)[C@@H](NC(=O)CCCCCCCNC(=O)CN2CCN(c3ccc(C(=O)Nc4n[nH]c5ccc(Cc6cc(F)cc(F)c6)cc45)c(NC4CCOCC4)c3)CC2)C(C)(C)C)cc1 [CPD-061, (2S,4R)-1-((S)-2-(8-(2-(4-(4-((5-(3,5-Difluorobenzyl)-1H-indazol-3-yl)carbamoyl)-3-((tetrahydro-2H-pyran-4-yl)amino)phenyl)piperazin-1-yl)acetamido)octanamido)-3,3-dimethylbutanoyl)-4-hydroxy-N-(4-(4-methylthiazol-5-yl)benzyl)pyrrolidine-2-carboxamide]
> 80	–	O=C(CN1CCN(c2ccc(C(=O)Nc3n[nH]c4ccc(Cc5cc(F)cc(F)c5)cc34)c(NC3CCOCC3)c2)CC1)NCCNc1cccc2c1C(=O)N(C1CCC(=O)NC1=O)C2=O (stereo not shown) [CPD-062, N-(5-(3,5-Difluorobenzyl)-1H-indazol-3-yl)-4-(4-(2-((2-((2-(2,6-dioxopiperidin-3-yl)-1,3-dioxoisoindolin-4-yl)amino)ethyl)amino)-2-oxoethyl)piperazin-1-yl)-2-((tetrahydro-2H-pyran-4-yl)amino)benzamide]
> 80	–	O=C(CN1CCN(c2ccc(C(=O)Nc3n[nH]c4ccc(Cc5cc(F)cc(F)c5)cc34)c(NC3CCOCC3)c2)CC1)NCCOCCOCCOCCNc1cccc2c1C(=O)N(C1CCC(=O)NC1=O)C2=O (stereo not drawn) [CPD-064, N—(S-(3,5-Difluorobenzyl)-1H-indazol-3-yl)-4-(4-(14-((2-(2,6-dioxopiperidin-3-yl)-1,3-dioxoisoindolin-4-yl)amino)-2-oxo-6,9,12-trioxa-3-azatetradecyl)piperazin-1-yl)-2-((tetrahydro-2H-pyran-4-yl)amino)benzamide]
> 80	–	O=C(CN1CCN(c2ccc(C(=O)Nc3n[nH]c4ccc(Cc5cc(F)cc(F)c5)cc34)c(NC3CCOCC3)c2)CC1)NCCOCCOCCOCCOCCOCCNc1cccc2c1C(=O)N(C1CCC(=O)NC1=O)C2=O (stereo not shown) [CPD-065, N-(5-(3,5-Difluorobenzyl)-1H-indazol-3-yl)-4-(4-(20-((2-(2,6-dioxopiperidin-3-yl)-1,3-dioxoisoindolin-4-yl)amino)-2-oxo-6,9,12,15,18-pentaoxa-3-azaicosyl)piperazin-1-yl)-2-((tetrahydro-2H-pyran-4-yl)amino)benzamide]
> 80	–	O=C(CN1CCN(c2cccc(-c3cnc4ccc(N5CCC[C@@H]5c5cccc(F)c5)nn34)n2)CC1)NCCOCCOCCOCCOCCOCCNc1cccc2c1C(=O)N(C1CCC(=O)NC1=O)C2=O (stereo partly drawn) [TR-104, N-(17-((2-(2,6-dioxopiperidin-3-yl)-1,3-dioxoisoindolin-4-yl)amino)-3,6,9,12,15-pentaoxaheptadecyl)-2-(4-(6-(6-((R)-2-(3-fluorophenyl)pyrrolidin-1-yl)imidazo[1,2-b]pyridazin-3-yl)pyridin-2-yl)piperazin-1-yl)acetamide]
> 80	–	O=C(CN1CCN(c2cccc(-c3cnc4ccc(N5CCC[C@@H]5c5cccc(F)c5)nn34)n2)CC1)NCCOCCOCCNc1cccc2c1C(=O)N(C1CCC(=O)NC1=O)C2=O (stereo partly drawn) [TR-105, N-(2-(2-(2-((2-(2,6-dioxopiperidin-3-yl)-1,3-dioxoisoindolin-4-yl)amino)ethoxy)ethoxy)ethyl)-2-(4-(6-(6-((R)-2-(3-fluorophenyl)pyrrolidin-1-yl)imidazo[1,2-b]pyridazin-3-yl)pyridin-2-yl)piperazin-1-yl)acetamide]
> 80	–	O=C(CN1CCN(c2cccc(-c3cnc4ccc(N5CCC[C@@H]5c5cccc(F)c5)nn34)n2)CC1)NCCCCNc1cccc2c1C(=O)N(C1CCC(=O)NC1=O)C2=O (stereo partly drawn) [TR-107, N-(4-((2-(2,6-dioxopiperidin-3-yl)-1,3-dioxoisoindolin-4-yl)amino)butyl)-2-(4-(6-(6-((R)-2-(3-fluorophenyl)pyrrolidin-1-yl)imidazo[1,2-b]pyridazin-3-yl)pyridin-2-yl)piperazin-1-yl)acetamide]
> 80	–	O=C(CN1CCN(c2cccc(-c3cnc4ccc(N5CCC[C@@H]5c5cccc(F)c5)nn34)n2)CC1)NCCOCCOCCOCCOCCNc1cccc2c1C(=O)N(C1CCC(=O)NC1=O)C2=O (stereo partly drawn) [TR-108, N-(14-((2-(2,6-dioxopiperidin-3-yl)-1,3-dioxoisoindolin-4-yl)amino)-3,6,9,12-tetraoxatetradecyl)-2-(4-(6-(6-((R)-2-(3-fluorophenyl)pyrrolidin-1-yl)imidazo[1,2-b]pyridazin-3-yl)pyridin-2-yl)piperazin-1-yl)acetamide]
> 80	–	O=C(CN1CCN(c2cccc(-c3cnc4ccc(N5CCC[C@@H]5c5cccc(F)c5)nn34)n2)CC1)NCCCNc1cccc2c1C(=O)N(C1CCC(=O)NC1=O)C2=O (stereo partly drawn) [TR-109, N-(3-((2-(2,6-dioxopiperidin-3-yl)-1,3-dioxoisoindolin-4-yl)amino)propyl)-2-(4-(6-(6-((R)-2-(3-fluorophenyl)pyrrolidin-1-yl)imidazo[1,2-b]pyridazin-3-yl)pyridin-2-yl)piperazin-1-yl)acetamide]
> 80	–	O=C1CCC(N2C(=O)c3ccc(NCCOCCOCCC(=O)N4CCN(c5cccc(-c6cnc7ccc(N8CCC[C@@H]8c8cccc(F)c8)nn67)n5)CC4)cc3C2=O)C(=O)N1 (stereo partly drawn) [TR-113, 2-(2,6-Dioxopiperidin-3-yl)-5-((2-(2-(3-(4-(6-(6-((R)-2˜ (3-fluorophenyl)pyrrolidin-1-yl)imidazo[1,2-b]pyridazin-3-yl)pyridin-2-yl)piperazin-1-yl)-3-oxopropoxy)ethoxy)ethyl)amino) isoindoline-1,3-dione]
> 80	–	O=C1CCC(N2C(=O)c3ccc(NCCOCCOCCOCCOCCOCCC(=O)N4CCN(c5cccc(-c6cnc7ccc(N8CCC[C@@H]8c8cccc(F)c8)nn67)n5)CC4)cc3C2=O)C(=O)N1 (stereo partly shown) [TR-116]
> 80	–	O=C1CCC(N2C(=O)c3ccc(NCCCCCCC(=O)N4CCN(c5cccc(-c6cnc7ccc(N8CCC[C@@H]8c8cccc(F)c8)nn67)n5)CC4)cc3C2=O)C(=O)N1 (stereo partly drawn) [TR-117, 2-(2,6-Dioxopiperidin-3-yl)-5-((7-(4-(6-(6-((R)-2-(3-fluorophenyl)pyrrolidin-1-yl)imidazo[1,2-b]pyridazin-3-yl)pyridin-2-yl)piperazin-1-yl)-7-oxoheptyl)amino) isoindoline-1,3-dione]
> 80	–	O=C1CCC(N2C(=O)c3ccc(NCCCCCCCC(=O)N4CCN(c5cccc(-c6cnc7ccc(N8CCC[C@@H]8c8cccc(F)c8)nn67)n5)CC4)cc3C2=O)C(=O)N1 (stereo partly drawn) [TR-118, 2-(2,6-Dioxopiperidin-3-yl)-5-((8-(4-(6-(6-((R)-2-(3-fluorophenyl)pyrrolidin-1-yl)imidazo[1,2-b]pyridazin-3-yl)pyridin-2-yl)piperazin-1-yl)-8-oxooctyl)amino) isoindoline-1,3-dione]
> 80	–	O=C1CCC(N2C(=O)c3ccc(NCCOCCC(=O)N4CCN(c5cccc(-c6cnc7ccc(N8CCC[C@@H]8c8cccc(F)c8)nn67)n5)CC4)cc3C2=O)C(=O)N1 (stereo partly drawn) [TR-119, 2-(2,6-Dioxopiperidin-3-yl)-5-((2-(3-(4-(6-(6-((R)-2-(3-fluorophenyl)pyrrolidin-1-yl)imidazo[1,2-b]pyridazin-3-yl)pyridin-2-yl)piperazin-1-yl)-3-oxopropoxy)ethyl)amino) isoindoline-1,3-dione]
> 80	–	O=C1CCC(N2C(=O)c3ccc(NCCOCCOCCOCCOCCC(=O)N4CCN(c5cccc(-c6cnc7ccc(N8CCC[C@@H]8c8cccc(F)c8)nn67)n5)CC4)cc3C2=O)C(=O)N1 (stereo partly drawn) [TR-120, 2-(2,6-Dioxopiperidin-3-yl)-5-((15-(4-(6-(6-((R)-2-(3-fluorophenyl)pyrrolidin-1-yl)imidazo[1,2-6]pyridazin-3-yl)pyridin-2-yl)piperazin-1-yl)-15-oxo-3,6,9,12-tetraoxapentadecyl)amino) isoindoline-1,3-dione]
